BindingDB's records for doi:10.1073/pnas.0609757104 (University of Central Florida College of Medicine, 2007)

Target: T1, Signal transducer and activator of transcription 1-alpha/beta (Homo sapiens, UniProt P42224)
T1 sequence (P42224 whole entry): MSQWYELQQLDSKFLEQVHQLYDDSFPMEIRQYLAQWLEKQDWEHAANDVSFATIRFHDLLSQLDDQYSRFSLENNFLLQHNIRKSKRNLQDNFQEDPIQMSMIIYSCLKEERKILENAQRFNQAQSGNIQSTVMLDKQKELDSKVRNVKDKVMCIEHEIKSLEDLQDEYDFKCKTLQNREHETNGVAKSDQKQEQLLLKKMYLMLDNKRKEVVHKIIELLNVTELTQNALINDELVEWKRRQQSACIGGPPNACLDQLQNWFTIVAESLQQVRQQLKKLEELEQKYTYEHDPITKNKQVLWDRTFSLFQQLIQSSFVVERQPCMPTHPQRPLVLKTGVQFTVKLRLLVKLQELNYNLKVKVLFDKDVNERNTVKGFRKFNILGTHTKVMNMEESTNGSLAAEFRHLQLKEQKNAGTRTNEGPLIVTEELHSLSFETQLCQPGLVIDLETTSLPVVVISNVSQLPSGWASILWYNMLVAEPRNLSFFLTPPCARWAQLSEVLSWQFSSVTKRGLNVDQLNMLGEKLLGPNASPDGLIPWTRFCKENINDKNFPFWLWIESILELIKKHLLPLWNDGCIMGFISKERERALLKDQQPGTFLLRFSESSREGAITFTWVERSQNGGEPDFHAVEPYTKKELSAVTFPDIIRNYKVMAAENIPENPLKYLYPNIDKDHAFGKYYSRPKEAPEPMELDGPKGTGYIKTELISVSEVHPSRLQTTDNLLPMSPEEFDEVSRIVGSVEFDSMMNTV
Assay: Electrophoretic Mobility Shift Assay (EMSA)
Details: pH 7.8; 22 °C
Experimental: STAT proteins were expressed in Sf9 cells from a baculovirus encoding the recombinant protein. A nuclear extract of the Sf9 cells was incubated with 32P-labeled high affinity c-fos sis inducible element (hSIE) either alone or in the presence of inhibitor. After incubation, samples were electrophoresed on polyacrylamide gels. The gels were dried, exposed to a phosphorimager screen and scanned. IC50 values were derived from plots of spot intensity versus phosphopeptide concentration. The affinity of peptides to the SH2 domain is measured by the intensity of the radioactivity of the Stat-DNA complex band in the electrophoresis gel.

Work on `Cc1ccc(S(=O)(=O)OCC(=O)Nc2ccc(C(=O)O)c(O)c2)cc1` [2-hydroxy-4-(2-{[(4-methylbenzene)sulfonyl]oxy}acetamido)benzoic acid] yielded an IC50 greater than 300 µM.
